Experimental data published in ChEMBL document CHEMBL5042530, “Discovery of Novel Pyridine-Dimethyl-Phenyl-DAPY Hybrids by Molecular Fusing of Methyl-Pyrimidine-DAPYs and Difluoro-Pyridinyl-DAPYs: Improving the Druggability toward High Inhibitory Activity, Solubility, Safety, and PK” (J Med Chem, 2022).
Values after ≈ are worked out from the molar mass of the structure shown.

What was measured:
[1] = Aqueous solubility of the compound in PBS buffer at pH 2 measured after 24 hrs by HPLC-UV analysis; assay type: physicochemical
[2] = Oral bioavailability in Sprague-Dawley rat at 5 mg/kg administered via gavage measured up to 24 hrs by LCMS analysis; assay type: ADME, organism-based; conditions: in vivo
[3] = Half life in Sprague-Dawley rat at 5 mg/kg, IG measured up to 24 hrs by LCMS analysis; assay type: ADME, organism-based; conditions: in vivo, po
[4] = Aqueous solubility of the compound in PBS buffer at pH 7 measured after 24 hrs by HPLC-UV analysis; assay type: physicochemical
[5] = Aqueous solubility of the compound in PBS buffer at pH 7.4 measured after 24 hrs by HPLC-UV analysis; assay type: physicochemical
[6] = system: Human immunodeficiency virus 1; assay: Antiviral activity against wild type HIV-1 IIIB infected in human MT4 cells assessed as protection against virus-induced cytotoxicity incubated for 5 days by MTT assay; assay type: functional, organism-based; conditions: Human immunodeficiency virus 1, IIIB, MT4, 120 h
[7] = Cytotoxicity against human MT4 cells assessed as reduction in cell viability measured after 5 days by MTT assay; assay type: toxicity, cell-based; conditions: time 5 day
[8] = Selectivity index, ratio of CC50 for cytotoxicity against human MT4 cells to EC50 for antiviral activity against HIV-1 IIIB infected in human MT4 cells; assay type: toxicity, cell-based; conditions: read-out: Ratio CC50/EC50
[9] = system: Human immunodeficiency virus 1; assay: Antiviral activity against HIV-1 harboring RT L100I mutant infected in human MT4 cells assessed as protection against virus-induced cytotoxicity incubated for 5 days by MTT assay; assay type: functional, organism-based; conditions: Human immunodeficiency virus 1, MT4, 120 h
[10] = system: Human immunodeficiency virus 1; assay: Antiviral activity against HIV-1 harboring K103N mutant infected in human MT4 cells assessed as protection against virus-induced cytotoxicity incubated for 5 days by MTT assay; assay type: functional, organism-based; conditions: Human immunodeficiency virus 1, MT4, 120 h
[11] = system: Human immunodeficiency virus 1; assay: Antiviral activity against HIV-1 harboring Y181C mutant infected in human MT4 cells assessed as protection against virus-induced cytotoxicity incubated for 5 days by MTT assay; assay type: functional, organism-based; conditions: Human immunodeficiency virus 1, MT4, 120 h
[12] = system: Human immunodeficiency virus 1; assay: Antiviral activity against HIV-1 harboring Y188L mutant infected in human MT4 cells assessed as protection against virus-induced cytotoxicity incubated for 5 days by MTT assay; assay type: functional, organism-based; conditions: Human immunodeficiency virus 1, MT4, 120 h
[13] = system: Human immunodeficiency virus 1; assay: Antiviral activity against HIV-1 harboring E138K mutant infected in human MT4 cells assessed as protection against virus-induced cytotoxicity incubated for 5 days by MTT assay; assay type: functional, organism-based; conditions: Human immunodeficiency virus 1, MT4, 120 h
[14] = system: Human immunodeficiency virus 1; assay: Antiviral activity against HIV-1 harboring F227L/V106A double mutant infected in human MT4 cells assessed as protection against virus-induced cytotoxicity incubated for 5 days by MTT assay; assay type: functional, organism-based; conditions: Human immunodeficiency virus 1, MT4, 120 h
[15] = system: Human immunodeficiency virus 1; assay: Antiviral activity against HIV-1 harboring RES056 mutant infected in human MT4 cells assessed as protection against virus-induced cytotoxicity incubated for 5 days by MTT assay; assay type: functional, organism-based; conditions: Human immunodeficiency virus 1, MT4, 120 h
[16] = biological target: Human immunodeficiency virus type 1 reverse transcriptase (Human immunodeficiency virus 1, UniProt Q72547); assay: Inhibition of recombinant wild type p66/p51 HIV1 reverse transcriptase incubated for 40 mins by picogreen dye-based spectrofluorometric analysis

For Cc1cnc(Nc2ccc(C#N)cc2)nc1Nc1c(F)cc(-c2ccc(C#N)cc2)cc1F, the solubility at 24 h [1] was < 1 µg/mL and the bioavailability [2] was 2.4%.

N#Cc1ccc(Nc2nccc(Nc3c(F)cc(-c4ccncc4)cc3F)n2)cc1 gave a half-life [3] of 50.4 min.

In the case of CC(=O)O.Cc1cc(-c2ccncc2)cc(C)c1Nc1ccnc(Nc2ccc(C#N)cc2)n1, the solubility at 24 h [1] is reported as 211 µg/mL, the solubility at 24 h [4] is reported as < 1 µg/mL and the solubility at 24 h [5] is reported as < 1 µg/mL.

In the case of Br.Cc1cc(-c2ccncc2)cc(C)c1Nc1ccnc(Nc2ccc(C#N)cc2)n1, the solubility at 24 h [1] is reported as 348 µg/mL, the solubility at 24 h [4] is reported as < 1 µg/mL and the solubility at 24 h [5] is reported as < 1 µg/mL.

For Cc1cc(-c2ccncc2)cc(C)c1Nc1ccnc(Nc2ccc(C#N)cc2)n1.O=C(O)C(F)(F)F, the solubility at 24 h [1] was 518 µg/mL, the solubility at 24 h [4] was < 1 µg/mL and the solubility at 24 h [5] was < 1 µg/mL.

For Cc1cc(-c2ccncc2)cc(C)c1Nc1ccnc(Nc2ccc(C#N)cc2)n1, the EC50 [6] was 1.7 nM, the CC50 at 120 h [7] was 6000 nM and the selectivity ratio [8] was 3520. The EC50 [9] was 4.2 nM, the EC50 [10] was 2 nM and the EC50 [11] was 6.4 nM. It also gave an EC50 [12] of 57 nM, an EC50 [13] of 9.5 nM and an EC50 [14] of 299 nM. It also gave an EC50 [15] of 64 nM, an IC50 [16] of 30.6 nM and a solubility at 24 h [1] of 199 µg/mL (≈ 507 µM). The solubility at 24 h [4] was < 1 µg/mL and the solubility at 24 h [5] was < 1 µg/mL.

Compound Cc1cc(-c2ccnc(F)c2)cc(C)c1Nc1ccnc(Nc2ccc(C#N)cc2)n1 has an EC50 [6] of 1.6 nM, a CC50 at 120 h [7] of 6000 nM and a selectivity ratio [8] of 3720. It also gave an EC50 [9] of 23 nM, an EC50 [10] of 3.6 nM and an EC50 [11] of 9.4 nM. It also gave an EC50 [12] of 313 nM, an EC50 [13] of 13 nM and an EC50 [14] of 436 nM. It also gave an EC50 [15] of 222 nM and an IC50 [16] of 32.9 nM.
